Counter-ions that a name gives are not always drawn.
Key:
[1] = Thermogravimetric analysis of the APIs; type: physicochemical; conditions: ramp heated to 140° C. and held for 10 minutes
Procedure: Thermogravimetric analysis was performed on the APIs used in compositions. Each drug was ramp heated to 140° C. and held at that temperature for 10 minutes. For all compositions, time spent melt-mixing is 8-10 minutes. The decomposition of the API in that time was less than 0.5% for each drug, meaning that the API are stable during processing. For Rifampin, the change in mass was 0.292%; for Minocycline HCl the change in mass was 0.421%; and for minocycline Free Base the change in mass was 0.137%.

[2] = Stability (discoloration) of the two forms of minocycline
E. Coli = conditions: averaged between the high and low of the MIC; cited from earlier work
[3] = cited from earlier work
S. Epidermidis = conditions: averaged between the high and low of the MIC; cited from earlier work
S. Aureus = conditions: averaged between the high and low of the MIC; cited from earlier work
A. Baumanii = conditions: averaged between the high and low of the MIC; cited from earlier work

change in mass (decomposition of the API) [1] | discoloration process ([2]; dry powder form exposed to air) | Compound | stability (discoloration) over time ([2]; stored in distilled water and formulated in compositions) | MIC (E. Coli) | solubility in water [3] | MIC (S. Epidermidis) | MIC (S. Aureus) | MIC (A. Baumanii)
0.421% | – | CN(C)c1ccc(O)c2c1C[C@H]1C[C@H]3[C@H](N(C)C)C(O)=C(C(N)=O)C(=O)[C@@]3(O)C(O)=C1C2=O [Minocycline HCl] | – | – | – | – | – | –
0.137% | not observed at all | CN(C)c1ccc(O)c2c1C[C@H]1C[C@H]3[C@H](N(C)C)C(=O)C(C(N)=O)=C(O)[C@@]3(O)C(=O)C1=C2O [minocycline Free Base] | the drug oxidizes with the passage of time | – | – | – | – | –

Compound | change in mass (decomposition of the API) [1] | discoloration process ([2]; dry powder form exposed to air) | stability (discoloration) over time ([2]; stored in distilled water and formulated in compositions) | MIC (E. Coli) | solubility in water [3] | MIC (S. Epidermidis) | MIC (S. Aureus) | MIC (A. Baumanii)
CO[C@H]1/C=C/O[C@@]2(C)Oc3c(C)c(O)c4c(O)c(c(/C=N/N5CCN(C)CC5)c(O)c4c3C2=O)NC(=O)/C(C)=C\C=C\[C@H](C)[C@H](O)[C@@H](C)[C@@H](O)[C@@H](C)[C@H](OC(C)=O)[C@@H]1C [Rifampicin] | 0.292% | – | – | 10 micrograms per ml | low solubility in water | 0.1 micrograms per ml | 0.0095 micrograms per ml | 6 micrograms per ml

From US20230149603A1, “DRUG-RELEASING POLYMER COMPOSITION AND DEVICE” (Novaflux Inc., priority 2021, published 2023)
